Experimental data from patent US8952073B2, “Estrogenic compounds, process for their production and pharmaceutical uses thereof” (The University of Ottawa, priority 2008, dated 2015).
Where “and” joins values, the source holds several entries; their conditions need not be identical. Equal values may be shown once. Read-outs that look alike come from different tables or passages of the source. Each block holds one molecule with its values, some of them ahead of it.

How the values were obtained:
ERβ vs. ERα = conditions: literature values; cited from earlier work
ERα [1] = molecular target: T1, ERα (Homo sapiens, UniProt P03372); experiment: Relative binding affinity (RBA), radiolabel competition assay, estrogen alpha receptor; conditions: for RBAα: estradiol=100; for RBA for ERα: relative to estradiol (set at 100%)
T1 sequence (P03372 1-595): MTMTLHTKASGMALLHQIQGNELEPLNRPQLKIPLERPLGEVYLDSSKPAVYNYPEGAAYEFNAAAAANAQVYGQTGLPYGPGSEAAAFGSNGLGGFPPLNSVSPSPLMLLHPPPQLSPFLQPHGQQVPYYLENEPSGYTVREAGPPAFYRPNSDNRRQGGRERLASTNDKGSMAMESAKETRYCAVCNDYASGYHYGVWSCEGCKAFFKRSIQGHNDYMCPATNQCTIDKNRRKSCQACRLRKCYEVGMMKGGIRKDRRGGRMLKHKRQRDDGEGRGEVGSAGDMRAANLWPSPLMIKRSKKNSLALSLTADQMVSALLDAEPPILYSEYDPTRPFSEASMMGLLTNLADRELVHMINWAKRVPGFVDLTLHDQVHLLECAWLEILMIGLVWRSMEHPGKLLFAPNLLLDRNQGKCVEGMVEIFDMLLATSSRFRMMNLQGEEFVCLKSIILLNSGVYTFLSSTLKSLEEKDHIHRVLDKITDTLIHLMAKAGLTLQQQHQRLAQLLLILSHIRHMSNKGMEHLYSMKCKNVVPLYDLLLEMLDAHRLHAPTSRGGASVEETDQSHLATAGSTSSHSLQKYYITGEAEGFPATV

ERβ [2] = molecular target: T2, ERβ (Homo sapiens, UniProt Q92731); experiment: Relative binding affinity (RBA), radiolabel competition assay, estrogen beta receptor; conditions: for RBAβ: estradiol=100; for RBA for ERβ: relative to estradiol (set at 100%)
T2 sequence (Q92731 whole entry): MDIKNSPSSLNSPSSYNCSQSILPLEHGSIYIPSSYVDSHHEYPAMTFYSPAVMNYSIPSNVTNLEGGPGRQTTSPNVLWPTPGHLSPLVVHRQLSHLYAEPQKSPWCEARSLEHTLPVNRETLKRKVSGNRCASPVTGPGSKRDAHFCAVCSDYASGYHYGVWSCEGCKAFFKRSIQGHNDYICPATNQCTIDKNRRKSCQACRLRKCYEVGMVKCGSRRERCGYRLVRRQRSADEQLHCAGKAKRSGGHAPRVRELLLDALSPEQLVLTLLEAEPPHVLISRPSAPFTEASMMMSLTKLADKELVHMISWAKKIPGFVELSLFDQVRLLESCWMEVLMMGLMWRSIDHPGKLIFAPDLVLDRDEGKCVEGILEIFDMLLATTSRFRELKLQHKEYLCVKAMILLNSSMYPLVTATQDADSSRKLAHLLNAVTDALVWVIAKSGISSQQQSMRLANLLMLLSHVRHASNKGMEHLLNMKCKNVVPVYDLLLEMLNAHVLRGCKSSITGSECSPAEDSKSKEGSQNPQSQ

ERα [3] = molecular target: T1, ERα; experiment: Relative transcription assay (RTA), estrogen response element driven luciferase, estrogen alpha receptor; format: cell-based; conditions: for RTAα: relative transcription activity, estradiol=100
ERβ [4] = molecular target: T2, ERβ; experiment: Relative transcription assay (RTA), estrogen response element driven luciferase, estrogen beta receptor; format: cell-based; conditions: for RTAβ: relative transcription activity, estradiol=100; for hormonal potency / transcriptional activation at ERβ, in words: result in words
intact hepatocytes = conditions: read-out: LC50, 2 hour exposure
[5] = ring C saturated compounds, natural stereochemistry at C9
[6] = double bond in ring C (C9-C11 or C9-C8), tested as mixtures except entries 16, 17, 19, 20, 25, 26
[7] = double bond in ring C, mixtures except entries 16, 17, 19, 20, 25, 26
[8] = 9-hydroxy compounds, natural stereochemistry at C9

SMILES: C=Cc1cc(O)cc2nc(-c3ccc(O)c(F)c3)oc12 [ERB-041]
binding affinity ERβ/ERα ratio (ERβ vs. ERα): 226

SMILES: C[C@]12CC[C@H](c3ccc(O)cc3)CC1CC[C@@H]2O (stereo partly drawn) [Entry 1]
CC50 at 2 h (in vitro; intact hepatocytes): 320 to 400 µM | RBAα (ERα [1]; [5]): 1.5 | RBA for ERα (ERα [1]): 1.7% and 1.5% | selective binding, favouring ERβ by a factor (ERβ [2]; ERβ over ERα): 15 | RBAβ (ERβ [2]; [5]): 21.5 | RBA for ERβ (ERβ [2]): 21.5% | RBAβ/RBAα (ERβ [2]; [5]): 14.6 | RTAα (ERα [3]): 4.3 | RTAα (ERα [3]; listed as 1*): −8.9 | Ratio RTAβ/RTAα (ERβ [4]): 38 | RTAβ (ERβ [4]): 164 | RTAβ (ERβ [4]; listed as 1*): 7.7

SMILES: C[C@]12CC[C@H](c3ccc(O)c(F)c3)CC1CC[C@@H]2O (stereo partly drawn) [Entry 2]
CC50 at 2 h (in vitro; intact hepatocytes): 400 to 450 µM | RBAα (ERα [1]; [5]): 1.0 | RBA for ERα (ERα [1]): 1.0% | RBAβ (ERβ [2]; [5]): 8.7 | RBA for ERβ (ERβ [2]): 8% | RBAβ/RBAα (ERβ [2]; [5]): 8.7 | RTAα (ERα [3]): −8.3 | RTAβ (ERβ [4]): 14 | hormonal potency / transcriptional activation at ERβ, in words (ERβ [4]): weak agonist for ERβ

SMILES: C[C@]12CC[C@H](c3ccc(O)cc3F)CC1CC[C@@H]2O (stereo partly drawn) [Entry 3]
CC50 at 2 h (in vitro; intact hepatocytes): 250 to 280 µM | RBAα (ERα [1]; [5]): 27.3 | RBAβ (ERβ [2]; [5]): 135.5 | RBA for the ERβ receptor compared with estradiol, in words (ERβ [2]; result in words): exceeded that of estradiol itself | RBAβ/RBAα (ERβ [2]; [5]): 5.0 | RTAα (ERα [3]): 44 | transcriptional activation at ERα, in words (ERα [3]; result in words): both an ERα and an ERβ agonist | Ratio RTAβ/RTAα (ERβ [4]): 3.6 | RTAβ (ERβ [4]): 162 | hormonal potency / transcriptional activation at ERβ, in words (ERβ [4]): both an ERα and an ERβ agonist

RBAα (ERα [1]; [5]): 0.4 | RBAβ (ERβ [2]; [5]): 0.28 | RBAβ/RBAα (ERβ [2]; [5]): 7.0
SMILES: C[C@]12CC[C@H](c3cc(F)c(O)c(F)c3)CC1CC[C@@H]2O (stereo partly drawn) [Entry 4]

SMILES: C[C@]12CC[C@H](c3ccc(O)c(F)c3F)CC1CC[C@@H]2O (stereo partly drawn) [Entry 5]
CC50 at 2 h (in vitro; intact hepatocytes): 155 to 200 µM | RBAα (ERα [1]; [5]): 4.6 | RBAβ (ERβ [2]; [5]): 42.8 | RBAβ/RBAα (ERβ [2]; [5]): 9.3 | RTAα (ERα [3]): 18 | Ratio RTAβ/RTAα (ERβ [4]): 8.4 | RTAβ (ERβ [4]): 151

SMILES: C[C@]12CC[C@H](c3cc(F)c(O)c(F)c3F)CC1CC[C@@H]2O (stereo partly drawn) [Entry 7]
CC50 at 2 h (in vitro; intact hepatocytes): > 600 µM | RBAα (ERα [1]; [5]): 0.19 | CC50 (intact hepatocytes): > 600 µM | RBAβ (ERβ [2]; [5]): 1.73 | further reduction in binding, factor (ERβ [2]; in comparison with entry 3): about 10 | RBAβ/RBAα (ERβ [2]; [5]): 9.1 | RTAα (ERα [3]): 11 | Ratio RTAβ/RTAα (ERβ [4]): 4.8 | RTAβ (ERβ [4]): 53

SMILES: C[C@]12CC[C@H](c3ccc(O)cc3Cl)CC1CC[C@@H]2O (stereo partly drawn) [Entry 8]
RBAα (ERα [1]; [5]): 55.3 | RTAα (ERα [3]): 88 | RTAβ (ERβ [4]): 188

SMILES: Cc1cc(O)ccc1[C@H]1CC[C@@]2(C)C(CC[C@@H]2O)C1 (stereo partly drawn) [Entry 9]
RBAα (ERα [1]; [5]): 2.8 | RBAβ (ERβ [2]; [5]): 33.6 | RBAβ/RBAα (ERβ [2]; [5]): 11.9 | RTAα (ERα [3]): −9.7 | RTAβ (ERβ [4]): 149

RBAα (ERα [1]; [6]): 0.44 | RBAβ/RBAα (ERβ [2]; [7]): 5.1 | RBAβ (ERβ [2]; [6]): 2.6
SMILES: C[C@]12CC=C(c3cc(F)c(O)cc3F)CC1CC[C@@H]2O (stereo partly drawn) [Entry 16]

RBAα (ERα [1]; [6]): 0.38 | RBAβ/RBAα (ERβ [2]; [7]): 6.8 | RBAβ (ERβ [2]; [6]): 3.3
SMILES: C[C@]12CCC(c3cc(F)c(O)cc3F)=CC1CC[C@@H]2O (stereo partly drawn) [Entry 17]

SMILES: C[C@]12CC=C(c3ccc(O)cc3Cl)CC1CC[C@@H]2O (stereo partly drawn) [Entry 19]
RBAα (ERα [1]; [6]): 60 | RBAβ/RBAα (ERβ [2]; [7]): 2.0 | RBAβ (ERβ [2]; [6]): 118 | RTAα (ERα [3]): 120 | Ratio RTAβ/RTAα (ERβ [4]): 1.6 | RTAβ (ERβ [4]): 157

SMILES: C[C@]12CCC(c3ccc(O)cc3Cl)=CC1CC[C@@H]2O (stereo partly drawn) [Entry 20]
RBAα (ERα [1]; [6]): 195 | RBAβ/RBAα (ERβ [2]; [7]): 1.7 | RBAβ (ERβ [2]; [6]): 331 | RTAα (ERα [3]): 98 | Ratio RTAβ/RTAα (ERβ [4]): 2.1 | RTAβ (ERβ [4]): 188

RBAα (ERα [1]; [6]): 0.32 | RBAβ/RBAα (ERβ [2]; [7]): 2.2 | RBAβ (ERβ [2]; [6]): 0.76
SMILES: C[C@]12CC=C(c3ccc(O)cc3CCSCc3ccccc3)CC1CC[C@@H]2O (stereo partly drawn) [Entry 25]

SMILES: C[C@]12CCC(c3ccc(O)cc3CCSCc3ccccc3)=CC1CC[C@@H]2O (stereo partly drawn) [Entry 26]
RBAα (ERα [1]; [6]): 0.31 | RBAβ/RBAα (ERβ [2]; [7]): 0.86 | RBAβ (ERβ [2]; [6]): 0.27 | RTAα (ERα [3]): 6.7 | Ratio RTAβ/RTAα (ERβ [4]): 2.2 | RTAβ (ERβ [4]): 15.6

RBAα (ERα [1]; [8]): 0.01 | RBAβ/RBAα (ERβ [2]; [8]): 10 | RBAβ (ERβ [2]; [8]): 0.1
SMILES: C[C@]12CC[C@](O)(c3ccc(O)cc3)CC1CC[C@@H]2O (stereo partly drawn) [Entry 27]

RBAα (ERα [1]; [8]): 0.009 | RBAβ/RBAα (ERβ [2]; [8]): 13 | RBAβ (ERβ [2]; [8]): 0.12
SMILES: C[C@]12CC[C@](O)(c3ccc(O)c(F)c3)CC1CC[C@@H]2O (stereo partly drawn) [Entry 28]

RBAα (ERα [1]; [8]): 0.17 | decrease in binding affinity (ERβ [2]; 9-hydroxy compound compared to the saturated analog): 37 fold | RBAβ/RBAα (ERβ [2]; [8]): 21 | RBAβ (ERβ [2]; [8]): 3.6
SMILES: C[C@]12CC[C@](O)(c3ccc(O)cc3F)CC1CC[C@@H]2O (stereo partly drawn) [Entry 29]

RBAα (ERα [1]; [8]): 0.005 | RBAβ/RBAα (ERβ [2]; [8]): 4.6 | RBAβ (ERβ [2]; [8]): 0.023
SMILES: C[C@]12CC[C@](O)(c3cc(F)c(O)c(F)c3)CC1CC[C@@H]2O (stereo partly drawn) [Entry 30]

RTAβ (ERβ [4]): 100
SMILES: C[C@]12CC[C@@H]3c4ccc(O)cc4CC[C@H]3[C@@H]1CC[C@@H]2O [Estradiol, 17β-estradiol, reference compound]
CC50 at 2 h (in vitro): 400 to 450 µM

SMILES: N#Cc1cc(-c2ccc(O)c(F)c2)cc2ccc(O)cc12 [WAY 202196]
binding affinity ERβ/ERα ratio (ERβ vs. ERα): 78
